Measurements reported in the supplement of paper PMC11061612.

Tests used:
[1] = system: KYSE-70 (Esophageal Squamous Cell Carcinoma); assay: Bliss excess, mean over the matrix (fraction); higher = more synergy
Procedure, shortened: (§1)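 Cell lines grown in DMEM/F12 or RPMI with 10% FBS were plated in 1536-well plates and held 24 hours at 37°C, 5% CO2 before 72 hours of exposure to two-drug dose matrices, with DMSO typically at 0.2%. CellTiter-Glo 2.0 luminescence gave viability, which was converted to inhibition. Vehicle wells were set to 0 and blank wells to 1. Combination Emax is the second-highest inhibition in the matrix, and Bliss excess is the observed combination effect minus the expected EA + EB − EA·EB, where EA and EB are the single-agent effects.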

[2] = system: NKM-1 (Acute Myeloid Leukemia); assay: as above
Procedure, shortened: as §1

[3] = system: SW684 (Other Solid Carcinomas); assay: as above
Procedure, shortened: as §1

[4] = system: NCI-H1755 (Lung Adenocarcinoma); assay: as above
Procedure, shortened: as §1

[5] = system: EB-3 (Burkitt's Lymphoma); assay: as above
Procedure, shortened: as §1

[6] = system: CML-T1 (Chronic Myelogenous Leukemia); assay: as above
Procedure, shortened: as §1

[7] = system: LAMA-84 (Chronic Myelogenous Leukemia); assay: as above
Procedure, shortened: as §1

KYM-1 (Rhabdomyosarcoma) [8] = assay: as above
Procedure, shortened: as §1

[9] = system: PC-14 (Lung Adenocarcinoma); assay: as above
Procedure, shortened: as §1

[10] = system: NCI-H810 (Non-Small Cell Lung Carcinoma); assay: as above
Procedure, shortened: as §1

[11] = system: HCC-44 (Lung Adenocarcinoma); assay: as above
Procedure, shortened: as §1

CHL-1 (Melanoma) [12] = assay: as above
Procedure, shortened: as §1

[13] = system: Becker (Low Grade Glioma); assay: as above
Procedure, shortened: as §1

[14] = system: RMG-I (Ovarian Carcinoma); assay: as above
Procedure, shortened: as §1

[15] = system: SK-MM-2 (Plasma Cell Myeloma); assay: as above
Procedure, shortened: as §1

[16] = system: OV-90 (Ovarian Carcinoma); assay: as above
Procedure, shortened: as §1

[17] = system: LOUCY (T-Lymphoblastic Leukemia); assay: as above
Procedure, shortened: as §1

[18] = system: PANC-02-03 (Pancreatic Carcinoma); assay: as above
Procedure, shortened: as §1

[19] = system: COLO-684 (Endometrial Carcinoma); assay: as above
Procedure, shortened: as §1

[20] = system: FLO-1 (Esophageal Adenocarcinoma); assay: as above
Procedure, shortened: as §1

[21] = system: KYSE-70 (Esophageal Squamous Cell Carcinoma); assay: combination Emax (second highest fraction inhibited in the dose matrix, 72 h); higher = more inhibition; extreme values may be limits of the assay
Procedure, shortened: as §1

[22] = system: NKM-1 (Acute Myeloid Leukemia); assay: as above
Procedure, shortened: as §1

[23] = system: SW684 (Other Solid Carcinomas); assay: as above
Procedure, shortened: as §1

[24] = system: NCI-H1755 (Lung Adenocarcinoma); assay: as above
Procedure, shortened: as §1

[25] = system: EB-3 (Burkitt's Lymphoma); assay: as above
Procedure, shortened: as §1

[26] = system: CML-T1 (Chronic Myelogenous Leukemia); assay: as above
Procedure, shortened: as §1

[27] = system: LAMA-84 (Chronic Myelogenous Leukemia); assay: as above
Procedure, shortened: as §1

KYM-1 (Rhabdomyosarcoma) [28] = assay: as above
Procedure, shortened: as §1

[29] = system: PC-14 (Lung Adenocarcinoma); assay: as above
Procedure, shortened: as §1

[30] = system: NCI-H810 (Non-Small Cell Lung Carcinoma); assay: as above
Procedure, shortened: as §1

[31] = system: HCC-44 (Lung Adenocarcinoma); assay: as above
Procedure, shortened: as §1

CHL-1 (Melanoma) [32] = assay: as above
Procedure, shortened: as §1

[33] = system: Becker (Low Grade Glioma); assay: as above
Procedure, shortened: as §1

[34] = system: RMG-I (Ovarian Carcinoma); assay: as above
Procedure, shortened: as §1

[35] = system: SK-MM-2 (Plasma Cell Myeloma); assay: as above
Procedure, shortened: as §1

[36] = system: OV-90 (Ovarian Carcinoma); assay: as above
Procedure, shortened: as §1

[37] = system: LOUCY (T-Lymphoblastic Leukemia); assay: as above
Procedure, shortened: as §1

[38] = system: PANC-02-03 (Pancreatic Carcinoma); assay: as above
Procedure, shortened: as §1

[39] = system: COLO-684 (Endometrial Carcinoma); assay: as above
Procedure, shortened: as §1

[40] = system: FLO-1 (Esophageal Adenocarcinoma); assay: as above
Procedure, shortened: as §1
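For Bliss excess, mean over the matrix in this document: after 72 h of two-drug dosing.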

Work on O=C(c1cc(Cc2n[nH]c(=O)c3ccccc23)ccc1F)N1CCN(C(=O)C2CC2)CC1 [Olaparib] + Cc1c2c(nn1C)CSCc1cc(n(C)n1)CSc1cc(c3ccccc3c1)OCCCc1c(C(=O)O)n(C)c3c-2c(Cl)ccc13 [AZD5991] (first compound max 10 µM, 7x7, partner max 1 µM) yielded a Bliss excess [1] of -0.032, a Bliss excess [2] of 0.0786 and a Bliss excess [3] of -0.0763. For the same molecule, the Bliss excess [4] was -0.0215, the Bliss excess [5] was -0.0579 and the Bliss excess [6] was -0.0255. For the same molecule, the Bliss excess [7] was -0.0136, the Bliss excess (KYM-1 (Rhabdomyosarcoma) [8]) was 0.0435 and the Bliss excess [9] was -0.0279. The Bliss excess [10] was -0.0578, the Bliss excess [11] was -0.0267 and the Bliss excess (CHL-1 (Melanoma) [12]) was -0.0174. The Bliss excess [13] was -0.0125, the Bliss excess [14] was -0.0627 and the Bliss excess [15] was -0.0093. It also gave a Bliss excess [16] of -0.0554, a Bliss excess [17] of -0.0086 and a Bliss excess [18] of -0.0465. The Bliss excess [19] was -0.0104, the Bliss excess [20] was -0.0102 and the “combination Emax” value [21] was 0.104. For the same molecule, the “combination Emax” value [22] was 1, the “combination Emax” value [23] was 0.0699 and the “combination Emax” value [24] was 0.18. For the same molecule, the “combination Emax” value [25] was 0.0218, the “combination Emax” value [26] was 0.832 and the “combination Emax” value [27] was 0.223. For the same molecule, the “combination Emax” value (KYM-1 (Rhabdomyosarcoma) [28]) was 0.832, the “combination Emax” value [29] was 0.0956 and the “combination Emax” value [30] was 0.49. The “combination Emax” value [31] was 0.117, the “combination Emax” value (CHL-1 (Melanoma) [32]) was 0.312 and the “combination Emax” value [33] was 0.22. The “combination Emax” value [34] was 0.123, the “combination Emax” value [35] was 0.111 and the “combination Emax” value [36] was 0.114. For the same molecule, the “combination Emax” value [37] was 0.234, the “combination Emax” value [38] was 0.128 and the “combination Emax” value [39] was 0.224. For the same molecule, the “combination Emax” value [40] was 0.253.

Work on N#Cc1cnc(Nc2cc(NC[C@H]3CNCCO3)c(C(F)(F)F)cn2)cn1 [SRA737] + C=CCn1c(=O)c2cnc(Nc3ccc(N4CCN(C)CC4)cc3)nc2n1-c1cccc(C(C)(C)O)n1 [AZD1775] (first compound max 10 µM, partner max 1 µM) yielded a Bliss excess [1] of 0.0613, a Bliss excess [2] of 0.0732 and a Bliss excess [3] of -0.0677. The Bliss excess [4] was -0.0377, the Bliss excess [5] was 0.0314 and the Bliss excess [6] was 0.0611. The Bliss excess [7] was 0.0718, the Bliss excess (KYM-1 (Rhabdomyosarcoma) [8]) was 0.0382 and the Bliss excess [9] was 0.0602. The Bliss excess [10] was 0.0718, the Bliss excess [11] was 0.0685 and the Bliss excess (CHL-1 (Melanoma) [12]) was 0.0512. The Bliss excess [13] was 0.176, the Bliss excess [14] was -0.0477 and the Bliss excess [15] was 0.0284. The Bliss excess [16] was -0.0401, the Bliss excess [17] was 0.138 and the Bliss excess [18] was -0.0172. The Bliss excess [19] was 0.0602, the Bliss excess [20] was -0.0189 and the “combination Emax” value [21] was 0.561. For the same molecule, the “combination Emax” value [22] was 0.976, the “combination Emax” value [23] was 0.277 and the “combination Emax” value [24] was 0.77. For the same molecule, the “combination Emax” value [25] was 0.798, the “combination Emax” value [26] was 1 and the “combination Emax” value [27] was 0.943. The “combination Emax” value (KYM-1 (Rhabdomyosarcoma) [28]) was 0.947, the “combination Emax” value [29] was 0.882 and the “combination Emax” value [30] was 0.81. The “combination Emax” value [31] was 0.732, the “combination Emax” value (CHL-1 (Melanoma) [32]) was 0.837 and the “combination Emax” value [33] was 0.705. For the same molecule, the “combination Emax” value [34] was 0.35, the “combination Emax” value [35] was 0.452 and the “combination Emax” value [36] was 0.425. The “combination Emax” value [37] was 1, the “combination Emax” value [38] was 0.42 and the “combination Emax” value [39] was 0.864. The “combination Emax” value [40] was 0.803.

Molecule N#Cc1cnc(Nc2cc(NC[C@H]3CNCCO3)c(C(F)(F)F)cn2)cn1 [SRA737] + CCc1c2c(nc3ccc(O)cc13)-c1cc3c(c(=O)n1C2)COC(=O)[C@]3(O)CC [SN-38] (first compound max 10 µM, 7x7, partner max 0.3 µM) has a Bliss excess [1] of 0.0857, a Bliss excess [2] of -0.0365 and a Bliss excess [3] of -0.0846. The Bliss excess [4] was -0.0327, the Bliss excess [5] was -0.0157 and the Bliss excess [6] was -0.0022. The Bliss excess [7] was -0.023, the Bliss excess (KYM-1 (Rhabdomyosarcoma) [8]) was -0.0207 and the Bliss excess [9] was 0.0164. For the same molecule, the Bliss excess [10] was 0.0918, the Bliss excess [11] was 0.124 and the Bliss excess (CHL-1 (Melanoma) [12]) was 0.0724. It also gave a Bliss excess [13] of -0.0297, a Bliss excess [14] of -0.0426 and a Bliss excess [15] of 0.014. It also gave a Bliss excess [16] of -0.0976, a Bliss excess [17] of 0.102 and a Bliss excess [18] of -0.0673. For the same molecule, the Bliss excess [19] was 0.0144, the Bliss excess [20] was 0.0593 and the “combination Emax” value [21] was 0.683. For the same molecule, the “combination Emax” value [22] was 0.995, the “combination Emax” value [23] was 0.459 and the “combination Emax” value [24] was 0.871. The “combination Emax” value [25] was 0.828, the “combination Emax” value [26] was 1 and the “combination Emax” value [27] was 0.953. The “combination Emax” value (KYM-1 (Rhabdomyosarcoma) [28]) was 0.945, the “combination Emax” value [29] was 0.816 and the “combination Emax” value [30] was 0.829. For the same molecule, the “combination Emax” value [31] was 0.904, the “combination Emax” value (CHL-1 (Melanoma) [32]) was 0.807 and the “combination Emax” value [33] was 0.865. For the same molecule, the “combination Emax” value [34] was 0.484, the “combination Emax” value [35] was 0.776 and the “combination Emax” value [36] was 0.519. For the same molecule, the “combination Emax” value [37] was 0.952, the “combination Emax” value [38] was 0.674 and the “combination Emax” value [39] was 0.878. The “combination Emax” value [40] was 0.815.
